Assay results: PMC3931418 (Nature, 2014)

Assays:
[1] = tested on: δ-OR sodium-anchored residue mutants; experiment: cAMP assay; format: cell-based, human
δ-OR [2] = details: cited from earlier work
[3] = tested on: δ-OR sodium-anchored residue mutants; experiment: δ-OR β-arrestin recruitment assay; details: sodium-anchored residue mutants compared to WT
WT δ-OR = WT δ-OR (Homo sapiens, UniProt P41143); experiment: δ-OR β-arrestin recruitment assay
δ-OR [4] = target: δ-OR (Homo sapiens, UniProt P41143); experiment: cAMP assay; format: cell-based; details: receptors transfected with 15 µg DNA
δ-OR (Homo sapiens, UniProt P41143), sequence (P41143 whole entry): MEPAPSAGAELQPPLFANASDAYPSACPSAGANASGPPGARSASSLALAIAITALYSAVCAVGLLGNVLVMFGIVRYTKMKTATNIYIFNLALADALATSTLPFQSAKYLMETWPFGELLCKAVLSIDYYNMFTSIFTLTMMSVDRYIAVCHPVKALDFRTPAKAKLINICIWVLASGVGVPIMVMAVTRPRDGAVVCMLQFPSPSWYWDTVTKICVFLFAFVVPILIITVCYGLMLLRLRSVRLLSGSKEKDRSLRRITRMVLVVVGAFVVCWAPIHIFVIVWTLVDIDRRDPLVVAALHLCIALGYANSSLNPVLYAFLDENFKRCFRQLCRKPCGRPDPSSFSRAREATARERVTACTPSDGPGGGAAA

δ-OR WT (HEK293) = δ-OR WT (HEK293) (Homo sapiens, UniProt P41143); format: binding
δ-OR WT (HEK293), sequence (P41143 whole entry): as above

δ-OR N131A (HEK293) = δ-OR N131A (HEK293) (Homo sapiens, UniProt P41143, N131A); format: binding
δ-OR N131A (HEK293), sequence (P41143 whole entry N131A): as the sequence (P41143 whole entry) above, with N131A counted along it

δ-OR D95N (HEK293) = δ-OR D95N (HEK293) (Homo sapiens, UniProt P41143, D95N)
δ-OR D95N (HEK293), sequence (P41143 whole entry D95N): as the sequence (P41143 whole entry) above, with D95N counted along it

δ-OR D95A (HEK293) = δ-OR D95A (HEK293) (Homo sapiens, UniProt P41143, D95A)
δ-OR D95A (HEK293), sequence (P41143 whole entry D95A): as the sequence (P41143 whole entry) above, with D95A counted along it

[5] = cooperativity of sodium with DADLE

WT δ-OR, sequence (P41143 whole entry): as the sequence (P41143 whole entry) above

## C=CCN1C[C@H](C)N([C@H](c2ccc(C(=O)N(CC)CC)cc2)c2cccc(O)c2)C[C@H]1C
[1]; sodium-anchored residue mutants compared to WT
  G-protein signaling: low to moderate reduction
δ-OR [2]
  effect of sodium ions on binding to the receptor: minimally affected
[3]
  β-arrestin signaling: low to moderate reduction

## O=C1/C(=C/c2ccccc2)C[C@@]2(O)[C@H]3Cc4ccc(O)c5c4[C@@]2(CCN3CC2CC2)[C@H]1O5 [BNTX]
WT δ-OR
  agonist activity at the β-arrestin pathway: no apparent agonist activity

## Oc1ccc2c3c1O[C@H]1c4oc5ccccc5c4C[C@@]4(O)[C@@H](C2)N(CC2CC2)CC[C@]314 [naltriben]
WT δ-OR
  agonist activity at the β-arrestin pathway: no apparent agonist activity

## Oc1ccc2c3c1O[C@H]1c4[nH]c5ccccc5c4C[C@@]4(O)[C@@H](C2)N(CC2CC2)CC[C@]314 [naltrindole]
WT δ-OR
  agonist activity at the β-arrestin pathway: no apparent agonist activity
δ-OR [4]
  activity at Gαi signaling: weak partial agonist activity

## [Na+] [sodium]
δ-OR WT (HEK293)
  Hill Coefficient: 0.56 ± 0.16
δ-OR WT (HEK293); allosteric model, orthosteric ligand DADLE
  Na+ pKB ± SEM: 1.88 ± 0.10
δ-OR WT (HEK293); [5]
  pα ± SEM: 1.93 ± 0.34
  α: 0.012
δ-OR WT (HEK293); read-out: Na+ KB, allosteric model, orthosteric ligand DADLE
  Kb: 13.3 mM
δ-OR N131A (HEK293)
  Hill Coefficient: NAE
  Na+ KB: NAE
  Na+ pKB ± SEM: NAE
  pα ± SEM: NAE
  α: NAE
δ-OR D95N (HEK293)
  Hill Coefficient: NAE
  Na+ KB: NAE
  Na+ pKB ± SEM: NAE
  pα ± SEM: NAE
  α: NAE
δ-OR D95A (HEK293)
  Hill Coefficient: NAE
  Na+ KB: NAE
  Na+ pKB ± SEM: NAE
  pα ± SEM: NAE
  α: NAE

## DADLE
[1]; Asp95Ala, Asn310Ala and Asn314Ala mutants
  G protein agonist efficacy: low to moderate reduction
